This passage reports minimal effective dose, inhibition in vivo and Activity results from ChEMBL document CHEMBL3272045, “4-amino-6-(trichloroethenyl)-1,3-benzenedisulfonamide, a new, potent fasciolicide” (J Med Chem, 1977).

Data set [1] concerns Fasciola hepatica. The data set can be described thus: Fasciolicidal activity against Fasciola hepatica metacercariae infected in po dosed rat assessed as elimination of liver flukes administered as single dose. In kind it is functional. The note with it: read-out: MED.
The test system of data set [2] is Fasciola hepatica. The data set can be described thus: Fasciolicidal activity against Fasciola hepatica metacercariae infected in sheep assessed as elimination of liver flukes at 15 mg/kg, po measured 6 weeks after infection. The note with it: 1008 h. It is filed as functional.
Data set [3] deals with Fasciola hepatica. The data set can be described thus: Fasciolicidal activity against Fasciola hepatica metacercariae infected in rat assessed as elimination of liver flukes at 3.1 mg/kg, po administered as single dose. It is filed as functional.
Data set [4] relates to Fasciola hepatica. The data set can be described thus: Fasciolicidal activity against Fasciola hepatica metacercariae infected in calves assessed as elimination of liver flukes at 15 mg/kg, po measured 8 weeks after infection. In kind it is functional. The following applies: 1344 h.
The subject of data set [5] is Fasciola hepatica. Nature of the data set: Fasciolicidal activity against Fasciola hepatica metacercariae infected in sheep assessed as elimination of liver flukes at 2.5 mg/kg, po measured 16 weeks after infection. In kind it is functional. The note with it: 2688 h.
The subject of data set [6] is Ovis aries. The data set can be described thus: Toxicity in Fasciola hepatica metacercariae infected in sheep assessed as induction of gross toxic reactions at 200 to 400 mg/kg, po administered as single dose. In kind it is organism-based. The arrangement: dose 200-400 mg/kg, route oral. The note with it: in vivo.

With `O=C(Nc1ccc(Oc2ccc(Cl)cc2)c(Cl)c1)c1cc(I)cc(I)c1O` [RAFOXANIDE], the minimal effective dose in data set [1] was 3.1 mg/kg.
`Nc1cc(C(Cl)=C(Cl)Cl)c(S(N)(=O)=O)cc1S(N)(=O)=O` [CLORSULON]: the inhibition in vivo at 15 mg/kg in data set [2] and in data set [4] was more than 90% in each case. Moreover, in data set [3], the inhibition in vivo at 3.1 mg/kg was more than 90%. Further, the inhibition in vivo at 2.5 mg/kg in data set [5] was 90%. Further, in data set [6], the Activity result is listed as “Non-toxic”.
